Measured values published in ChEMBL document CHEMBL5143709, “Synthesis and characterization of an orally bioavailable small molecule agonist of the apelin receptor” (Bioorg Med Chem, 2022).
In brackets after ≈: the same amount, converted by molar mass.

system: not listed separately; test: AUC in Sprague-Dawley rat at 10 mg/kg, po measured upto 24 hrs by LC-MS/MS analysis; format: ADME, organism-based; design: time < 24 hrs, dose 10 mg/kg, route po; conditions: in vivo

| Structure (SMILES) | AUC at 24 h [ng·h/mL] |
| --- | --- |
| O=C(C[C@H](CCN1CCCC(F)(F)C1)NC(=O)c1cc(-c2ccccc2C(F)(F)F)n(C2CCCC2)n1)Nc1nnn[nH]1 | 5850 |

system: not listed separately; test: Solubility of the compound at pH 7.4; format: physicochemical; conditions: buffer

| Structure (SMILES) | solubility [µM] |
| --- | --- |
| O=C(C[C@H](CCN1CCCC(F)(F)C1)NC(=O)c1cc(-c2ccccc2C(F)(F)F)n(C2CCCC2)n1)NC1CCC1 | 4 (≈ 2.38 µg/mL) |
| O=C(C[C@H](CCN1CCCC(F)(F)C1)NC(=O)c1cc(-c2ccccc2C(F)(F)F)n(C2CCCC2)n1)Nc1nnn[nH]1 | > 1000 |

system: not listed separately; test: Oral bioavailability in Sprague-Dawley rat at 10 mg/kg measured upto 24 hrs by LC-MS/MS analysis; format: ADME, organism-based; conditions: in vivo

| Structure (SMILES) | bioavailability [%] |
| --- | --- |
| O=C(C[C@H](CCN1CCCC(F)(F)C1)NC(=O)c1cc(-c2ccccc2C(F)(F)F)n(C2CCCC2)n1)Nc1nnn[nH]1 | > 95 |

molecular target: T1, Apelin receptor (Homo sapiens, UniProt P35414); test: Agonist activity at human APJ receptor expressed in CHO cells co-expressing Galphaq16 assessed as stimulation of Ca2+ mobilization measured at 1 sec interval for 90 sec by fluorescent Calcium 5-dye based FLIPR-calcium mobilization assay; format: functional, cell-based; conditions: not given
T1 sequence (P35414 whole entry): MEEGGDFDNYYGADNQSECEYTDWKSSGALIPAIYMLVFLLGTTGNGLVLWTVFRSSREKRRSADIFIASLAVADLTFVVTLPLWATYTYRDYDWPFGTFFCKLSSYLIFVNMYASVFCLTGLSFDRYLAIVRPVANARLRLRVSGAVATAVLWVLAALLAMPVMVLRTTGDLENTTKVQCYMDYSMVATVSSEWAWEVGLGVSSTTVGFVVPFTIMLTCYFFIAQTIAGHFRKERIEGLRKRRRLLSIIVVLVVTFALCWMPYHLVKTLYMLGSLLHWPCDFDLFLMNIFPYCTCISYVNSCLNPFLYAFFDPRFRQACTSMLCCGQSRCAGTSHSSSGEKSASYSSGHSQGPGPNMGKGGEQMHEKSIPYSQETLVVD

| Structure (SMILES) | EC50 [nM] |
| --- | --- |
| CN(C)CC[C@@H](CC(=O)NC1CCC1)NC(=O)c1cc(-c2ccccc2C(F)(F)F)n(C2CCCC2)n1 | 834 |
| O=C(C[C@@H](CN1CCC(F)(F)C1)NC(=O)c1cc(-c2ccccc2C(F)(F)F)n(C2CCCC2)n1)NC1CCC1 | 1210 |
| O=C(C[C@H](CCN1CCOCC1)NC(=O)c1cc(-c2ccccc2C(F)(F)F)n(C2CCCC2)n1)NC1CCC1 | 69 |
| CN(CC[C@@H](CC(=O)NC1CCC1)NC(=O)c1cc(-c2ccccc2C(F)(F)F)n(C2CCCC2)n1)C1CCCCC1 | 14 |
| O=C(C[C@H](CCN1CCCCC1)NC(=O)c1cc(-c2ccsc2C(F)(F)F)n(C2CCCC2)n1)NC1CCC1 | 538 |
| O=C(C[C@H](CCN1CCCC(F)(F)C1)NC(=O)c1cc(-c2ccccc2C(F)(F)F)n(C2CCCC2)n1)Nc1nnn[nH]1 | 24 |
| CN(C[C@H](CC(=O)NC1CCC1)NC(=O)c1cc(-c2ccccc2C(F)(F)F)n(C2CCCC2)n1)C1CCCCC1 | 5120 |
| O=C(C[C@H](CCN1CCCC[C@H]1C(F)(F)F)NC(=O)c1cc(-c2ccccc2C(F)(F)F)n(C2CCCC2)n1)NC1CCC1 | 31 |
| O=C(C[C@H](CCc1ccc(F)cc1)NC(=O)c1cc(-c2ccccc2C(F)(F)F)n(C2CCCC2)n1)NC1CCC1 | 103 |
| O=C(C[C@H](CCN1CCCCC1)NC(=O)c1cc(-c2cccc[n+]2[O-])n(C2CCCC2)n1)NC1CCC1 | > 10000 |

molecular target: T2, Apelin receptor (Homo sapiens) (UniProt P35414); test: Agonist activity at human AGTRL1 expressed in CHO-K1 cells assessed as induction of beta-arrestin 2 recruitment by measuring maximal efficacy incubated for 90 mins by PathHunter assay relative to control; format: functional, cell-based; conditions: filed as agonist
T2 sequence (whole entry): T1 sequence (P35414 whole entry)

| Structure (SMILES) | Emax [%] |
| --- | --- |
| O=C(C[C@H](CCN1CCCC(F)(F)C1)NC(=O)c1cc(-c2ccccc2C(F)(F)F)n(C2CCCC2)n1)NC1CCC1 | 107 |
| O=C(C[C@H](CCN1CCCC(F)(F)C1)NC(=O)c1cc(-c2ccccc2C(F)(F)F)n(C2CCCC2)n1)Nc1nnn[nH]1 | 80 |

system: not listed separately; test: Apparent permeability from basolateral to apical side in human Caco-2 cells by LC-MS/MS analysis; format: ADME, cell-based; conditions: not given

| Structure (SMILES) | Papp B→A [×10⁻⁶ cm/s] |
| --- | --- |
| O=C(C[C@H](CCN1CCCC(F)(F)C1)NC(=O)c1cc(-c2ccccc2C(F)(F)F)n(C2CCCC2)n1)NC1CCC1 | 36 |
| CN(CC[C@@H](CC(=O)NC1CCC1)NC(=O)c1cc(-c2ccccc2C(F)(F)F)n(C2CCCC2)n1)C1CCCCC1 | 68 |
| O=C(C[C@H](CCN1CCCC(F)(F)C1)NC(=O)c1cc(-c2ccccc2C(F)(F)F)n(C2CCCC2)n1)Nc1nnn[nH]1 | 8 |

system: not listed separately; test: Cmax in Sprague-Dawley rat at 10 mg/kg, po measured upto 24 hrs by LC-MS/MS analysis; format: ADME, organism-based; design: dose 10 mg/kg, time < 24 hrs, route po; conditions: in vivo

| Structure (SMILES) | Cmax [ng/mL] |
| --- | --- |
| O=C(C[C@H](CCN1CCCC(F)(F)C1)NC(=O)c1cc(-c2ccccc2C(F)(F)F)n(C2CCCC2)n1)Nc1nnn[nH]1 | 1580 |

system: not listed separately; test: Metabolic stability in Sprague-Dawley rat liver microsomes assessed as parent compound remaining at 1 uM measured after 30 mins in the presence of NADPH by LC-MS analysis; conditions: not given

| Structure (SMILES) | remaining at 0.5 h, 1 µM [%] |
| --- | --- |
| O=C(C[C@H](CCN1CCCC(F)(F)C1)NC(=O)c1cc(-c2ccccc2C(F)(F)F)n(C2CCCC2)n1)NC1CCC1 | 38.7 |
| CN(CC[C@@H](CC(=O)NC1CCC1)NC(=O)c1cc(-c2ccccc2C(F)(F)F)n(C2CCCC2)n1)C1CCCCC1 | 65.2 |
| O=C(C[C@H](CCN1CCCC[C@H]1C(F)(F)F)NC(=O)c1cc(-c2ccccc2C(F)(F)F)n(C2CCCC2)n1)NC1CCC1 | 6.04 |

system: not listed separately; test: Tmax in Sprague-Dawley rat at 10 mg/kg, po measured upto 24 hrs by LC-MS/MS analysis; format: ADME, organism-based; conditions: in vivo

| Structure (SMILES) | Tmax [min] |
| --- | --- |
| O=C(C[C@H](CCN1CCCC(F)(F)C1)NC(=O)c1cc(-c2ccccc2C(F)(F)F)n(C2CCCC2)n1)Nc1nnn[nH]1 | 24 |

system: not listed separately; test: MRT in Sprague-Dawley rat at 10 mg/kg, po measured upto 24 hrs by LC-MS/MS analysis; format: ADME, organism-based; conditions: in vivo

| Structure (SMILES) | MRT [h] |
| --- | --- |
| O=C(C[C@H](CCN1CCCC(F)(F)C1)NC(=O)c1cc(-c2ccccc2C(F)(F)F)n(C2CCCC2)n1)Nc1nnn[nH]1 | 5.1 |

system: not listed separately; test: Half-life in Sprague-Dawley rat at 10 mg/kg, po measured upto 24 hrs by LC-MS/MS analysis; format: ADME, organism-based; conditions: in vivo

| Structure (SMILES) | half-life [min] |
| --- | --- |
| O=C(C[C@H](CCN1CCCC(F)(F)C1)NC(=O)c1cc(-c2ccccc2C(F)(F)F)n(C2CCCC2)n1)Nc1nnn[nH]1 | 246 |

system: not listed separately; test: Plasma protein binding in rat by LC-MS/MS analysis; format: ADME, cell-free; conditions: read-out: PPB (converted)

| Structure (SMILES) | fraction unbound |
| --- | --- |
| O=C(C[C@H](CCN1CCCC(F)(F)C1)NC(=O)c1cc(-c2ccccc2C(F)(F)F)n(C2CCCC2)n1)NC1CCC1 | 0.005 |
| O=C(C[C@H](CCN1CCCC(F)(F)C1)NC(=O)c1cc(-c2ccccc2C(F)(F)F)n(C2CCCC2)n1)Nc1nnn[nH]1 | < 0.006 |

molecular target: T1, Apelin receptor; test: Agonist activity at human APJ receptor expressed in CHO cells assessed as inhibition of forskolin-induced cAMP accumulation measured after 30 mins by TR-FRET based LANCE cAMP assay; format: functional, cell-based; conditions: not given

| Structure (SMILES) | EC50 [nM] |
| --- | --- |
| O=C(C[C@H](CCN1CCCC(F)(F)C1)NC(=O)c1cc(-c2ccccc2C(F)(F)F)n(C2CCCC2)n1)NC1CCC1 | 3.4 |
| O=C(C[C@H](CCN1CCOCC1)NC(=O)c1cc(-c2ccccc2C(F)(F)F)n(C2CCCC2)n1)NC1CCC1 | 28 |
| CN(CC[C@@H](CC(=O)NC1CCC1)NC(=O)c1cc(-c2ccccc2C(F)(F)F)n(C2CCCC2)n1)C1CCCCC1 | 2 |
| O=C(C[C@H](CCN1CCCC(F)(F)C1)NC(=O)c1cc(-c2ccccc2C(F)(F)F)n(C2CCCC2)n1)Nc1nnn[nH]1 | 6.5 |
| O=C(C[C@H](CCN1CCCC[C@H]1C(F)(F)F)NC(=O)c1cc(-c2ccccc2C(F)(F)F)n(C2CCCC2)n1)NC1CCC1 | 6 |
| O=C(C[C@H](CCc1ccc(F)cc1)NC(=O)c1cc(-c2ccccc2C(F)(F)F)n(C2CCCC2)n1)NC1CCC1 | 15 |

molecular target: T1, Apelin receptor; test: Agonist activity at human AGTRL1 expressed in CHO-K1 cells assessed as induction of beta-arrestin 2 recruitment incubated for 90 mins by PathHunter assay; format: functional, cell-based; conditions: not given

| Structure (SMILES) | EC50 [nM] |
| --- | --- |
| O=C(C[C@H](CCN1CCCC(F)(F)C1)NC(=O)c1cc(-c2ccccc2C(F)(F)F)n(C2CCCC2)n1)NC1CCC1 | 5.4 |
| O=C(C[C@H](CCN1CCCC(F)(F)C1)NC(=O)c1cc(-c2ccccc2C(F)(F)F)n(C2CCCC2)n1)Nc1nnn[nH]1 | 463 |

system: not listed separately; test: Efflux ratio of apparent permeability from basolateral to apical side over apical to basolateral side in human Caco-2 cells by LC-MS/MS analysis; format: ADME, cell-based; conditions: not given

| Structure (SMILES) | efflux ratio |
| --- | --- |
| O=C(C[C@H](CCN1CCCC(F)(F)C1)NC(=O)c1cc(-c2ccccc2C(F)(F)F)n(C2CCCC2)n1)NC1CCC1 | 1 |
| O=C(C[C@H](CCN1CCCC(F)(F)C1)NC(=O)c1cc(-c2ccccc2C(F)(F)F)n(C2CCCC2)n1)Nc1nnn[nH]1 | 1 |

system: not listed separately; test: Clearance in Sprague-Dawley rat at 10 mg/kg, po measured upto 24 hrs by LC-MS/MS analysis; format: ADME, organism-based; conditions: in vivo

| Structure (SMILES) | CL/F [mL/min/kg] |
| --- | --- |
| O=C(C[C@H](CCN1CCCC(F)(F)C1)NC(=O)c1cc(-c2ccccc2C(F)(F)F)n(C2CCCC2)n1)Nc1nnn[nH]1 | 28 |

system: not listed separately; test: Apparent permeability from apical to basolateral side in human Caco-2 cells by LC-MS/MS analysis; format: ADME, cell-based; conditions: not given

| Structure (SMILES) | Papp A→B [×10⁻⁶ cm/s] |
| --- | --- |
| O=C(C[C@H](CCN1CCCC(F)(F)C1)NC(=O)c1cc(-c2ccccc2C(F)(F)F)n(C2CCCC2)n1)NC1CCC1 | 33 |
| O=C(C[C@H](CCN1CCCC(F)(F)C1)NC(=O)c1cc(-c2ccccc2C(F)(F)F)n(C2CCCC2)n1)Nc1nnn[nH]1 | 8 |
